Numbered stars: 1 amine (or outer) side, 2 acyl side, 3 side chain; on linkers, the order of the positions; unused ones are H or OH. Bridge positions count the residues as written; N and C are the ends. Square brackets hold non-standard residues; d marks the D form. Peptide text beside a SMILES is read from it. ξ: configuration not given here. Trp(1-CH2CONHSO2Me) = CS(=O)(=O)NC(=O)Cn1cc(C[C@H](N)C(=O)O)c2ccccc21; Trp(4-aza,1-CH2COOH) = N[C@@H](Cc1cn(CC(=O)O)c2cccnc12)C(=O)O; X1 = O=C(O)Cn1c(C(=O)O)c(C[C@H](N[*:1])C(=O)[*:2])c2ccccc21; X10 = COc1ccc2c(c1)c(C[C@H](N[*:1])C(=O)[*:2])cn2CC(=O)O; X11 = O=C(O)Cc1nc(C[C@H](N[*:1])C(=O)[*:2])c2n1CCCC2; X12 = O=C(O)Cc1nn(C[C@H](N[*:1])C(=O)[*:2])c2ccccc12; X5 = O=C(O)Cn1nc(C[C@H](N[*:1])C(=O)[*:2])c2ccccc21; X2 = O=C(O)Cc1cn(CC(N[*:1])C(=O)[*:2])c2cccnc12; X4 = Cc1cccc2c(CC(N[*:1])C(=O)[*:2])n[nH]c12; X6 = O=C([C@H](Cc1ccc2cnccc2c1)N[*:1])[*:2]; Phe(4-F) = N[C@@H](Cc1ccc(F)cc1)C(=O)O; Hyp = O=C(O)[C@@H]1C[C@@H](O)CN1; NMeNle = CCCC[C@H](NC)C(=O)O; Pen = CC(C)(S)[C@H](N)C(=O)O; Pip = O=C(O)[C@@H]1CCCCN1; NMeA = CN[C@@H](C)C(=O)O; Dab = NCC[C@H](N)C(=O)O; Dap = NC[C@H](N)C(=O)O; ξP = O=C(O)C1CCCN1; Sar = CNCC(=O)O
These compounds were tested against T1, PD-1-Ig binding to PD-L1-TVMV-His (PD-L1-His) (Homo sapiens, UniProt Q9NZQ7) (assay: PD-1/PD-L1 Homogenous Time-Resolved Fluorescence (HTRF) binding assay). Details: PD-1-Ig (20 nM)/PD-L1-His (10 nM); numeric value.
T1 construct: hPDL1 (19-239)-TVMV-His; TVMV protease cleavage site (C); made in house; host or cells: HEK293T cells
Excerpt: The ability of the macrocyclic peptides of the present disclosure to bind to PD-L1 was investigated using a PD-1/PD-L1 Homogenous Time-Resolved Fluorescence (HTRF) binding assay.
Homogenous Time-Resolved Fluorescence (HTRF) Assays of Binding of Soluble PD-1 to Soluble PD-L1. Soluble PD-1 and soluble PD-L1 refers to proteins with carboxyl-end truncations that remove the transmembrane-spanning regions and are fused to heterologous sequences, specifically the Fc portion of the human immunoglobuling G sequence (Ig) or the hexahistidine epitope tag (His). All binding studies were performed in an HTRF assay buffer consisting of dPBS supplemented with 0.1% (w/v) bovine serum albumin and 0.05% (v/v) Tween-20. For the PD-1-Ig/PD-L1-His binding assay, inhibitors were pre-incubated with PD-L1-His (10 nM final) for 15 m in 4 μl of assay buffer, followed by addition of PD-1-Ig (20 nM final) in 1 μl of assay buffer and further incubation for 15 m. PD-L1 fusion proteins from either human, cynomologous macaques, mouse, or other species were used. HTRF detection was achieved using europium crypate-labeled anti-Ig monoclonal antibody (1 nM final) and allophycocyanin (APC) labeled anti-His monoclonal antibody (20 nM final). Antibodies were diluted in HTRF detection buffer and 5 μl was dispensed on top of binding reaction. The reaction was allowed to equilibrate for 30 minutes and signal (665 nm/620 nm ratio) was obtained using an EnVision fluorometer. Additional binding assays were established between PD-1-Ig/PD-L2-His (20 and 5 nM, respectively), CD80-His/PD-L1-Ig (100 and 10 nM, respectively) and CD80-His/CTLA4-Ig (10 and 5 nM, respectively). Binding/competition studies between biotinylated Compound No. 71 and human PD-L1-His were performed as follows. Macrocyclic peptide inhibitors were pre-incubated with PD-L1-His (10 nM final) for 60 minutes in 4 μl of assay buffer followed by addition of biotinylated Compound No. 71 (0.5 nM final) in 1 μl of assay buffer. Binding was allowed to equilibrate for 30 minutes followed by addition of europium crylated labeled Streptavidin (2.5 pM final) and APC-labeled anti-His (20 nM final) in 5 μl of HTRF buffer. The reaction was allowed to equilibrate for 30 m and signal (665 nm/620 nm ratio) was obtained using an EnVision fluorometer.
Recombinant Proteins. Carboxyl-truncated human PD-1 (amino acids 25-167) with a C-terminal human Ig epitope tag [hPD-1 (25-167)-3S-IG] and human PD-L1 (amino acids 18-239) with a C-terminal His epitope tag [hPD-L1(19-239)-tobacco vein mottling virus protease cleavage site (TVMV)-His] were expressed in HEK293T cells and purified sequentially by recombinant Protein A affinity chromatography and size exclusion chromatography. Human PD-L2-His (Sino Biologicals), CD80-His (Sino Biologicals), CTLA4-Ig (RnD Systems) were all obtained through commercial sources.

T1 sequence (Q9NZQ7 with tags, fused parts or gaps): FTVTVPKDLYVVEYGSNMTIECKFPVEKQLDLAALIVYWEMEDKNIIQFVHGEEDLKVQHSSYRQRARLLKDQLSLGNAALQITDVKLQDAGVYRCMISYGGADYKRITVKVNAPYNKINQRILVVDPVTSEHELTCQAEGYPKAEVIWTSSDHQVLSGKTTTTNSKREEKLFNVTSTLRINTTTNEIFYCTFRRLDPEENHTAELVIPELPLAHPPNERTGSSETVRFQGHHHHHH

| Structure (SMILES) | IC50 [nM] |
| --- | --- |
| CCCC[C@H]1C(=O)N(C)[C@@H](CCCC)C(=O)N[C@@H](CC(C)C)C(=O)N[C@H](C(N)=O)CSCC(=O)N[C@@H](Cc2ccc(O)cc2)C(=O)N(C)[C@@H](C)C(=O)N[C@@H](CC(N)=O)C(=O)N2CCC[C@H]2C(=O)N[C@@H](CN)C(=O)N[C@@H](CC(C)C)C(=O)N2C[C@H](O)C[C@H]2C(=O)N[C@@H](Cc2c[nH]c3ccccc23)C(=O)N[C@@H](CCN)C(=O)N[C@@H](Cc2cn(CC(=O)O)c3cccnc23)C(=O)N1C [Example 10502] ({CH2CO}-Y[NMeA]NP[Dap]L[Hyp]W[Dab][Trp(4-aza,1-CH2COOH)][NMeNle][NMeNle]LC-NH2; thioether N-14) | 13 |
| CCCC[C@H]1C(=O)N(C)[C@@H](CCCC)C(=O)N[C@@H](C)C(=O)N[C@H](C(=O)NCC(N)=O)CSCC(=O)N[C@@H](Cc2ccc(O)cc2)C(=O)N(C)[C@@H](C)C(=O)N[C@@H](CC(N)=O)C(=O)N2CCCC2C(=O)N[C@@H](Cc2cnc[nH]2)C(=O)N[C@@H](CCC(N)=O)C(=O)N2C[C@H](O)C[C@H]2C(=O)N[C@@H](Cc2c[nH]c3ccccc23)C(=O)N[C@@H](CO)C(=O)NC(Cc2n[nH]c3c(C)cccc23)C(=O)N1C (stereo partly drawn) [Example 1288] ({CH2CO}-Y[NMeA]N[ξP]HQ[Hyp]WS[X4][NMeNle][NMeNle]ACG-NH2; thioether N-14) | 7140 |

Same assay, conditions: PD-1-Ig (20 nM)/PD-L1-His (10 nM); range class

| Structure (SMILES) | IC50 [nM] |
| --- | --- |
| CCCC[C@H]1C(=O)N(C)[C@@H](CCCC)C(=O)N[C@@H](CC(C)C)C(=O)N[C@H](C(N)=O)C(C)(C)SCC(=O)N[C@@H](Cc2ccc(F)cc2)C(=O)N2CCCC[C@H]2C(=O)N[C@@H](CC(=O)O)C(=O)N2CCC[C@H]2C(=O)N[C@@H](Cc2cnc[nH]2)C(=O)N[C@@H](CCC(=O)O)C(=O)N2C[C@H](O)C[C@H]2C(=O)N[C@@H](Cc2c[nH]c3ccccc23)C(=O)N[C@@H](CCN)C(=O)N[C@@H](Cc2cn(CC(=O)NS(C)(=O)=O)c3ccccc23)C(=O)N1C [Example 1006] ({CH2CO}-[Phe(4-F)][Pip]DPHE[Hyp]W[Dab][Trp(1-CH2CONHSO2Me)][NMeNle][NMeNle]L[Pen]-NH2; thioether N-14) | 1 to 9.9 |
| CCCC[C@H]1C(=O)N(C)[C@@H](CCCC)C(=O)N[C@@H](CC(C)C)C(=O)N[C@H](C(=O)NCC(N)=O)CSCC(=O)N[C@@H](Cc2ccc(O)cc2)C(=O)N(C)[C@@H](C)C(=O)N[C@@H](CC(N)=O)C(=O)N2CCC[C@H]2C(=O)N[C@@H](CN)C(=O)N[C@@H](CC(C)C)C(=O)N2C[C@H](O)C[C@H]2C(=O)N[C@@H](Cc2c[nH]c3ccccc23)C(=O)N[C@@H](CCN)C(=O)N[C@@H](Cn2nc(CC(=O)O)c3ccccc32)C(=O)N1C [Example 1012] ({CH2CO}-Y[NMeA]NP[Dap]L[Hyp]W[Dab][X12][NMeNle][NMeNle]LCG-NH2; thioether N-14) | 10 to 99 |
| CCCC[C@H]1C(=O)N(C)[C@@H](CCCC)C(=O)N[C@@H](CC(C)C)C(=O)N[C@H](C(N)=O)CSCC(=O)N[C@@H](Cc2ccc(O)cc2)C(=O)N(C)[C@@H](C)C(=O)N[C@@H](CC(N)=O)C(=O)N(C)CC(=O)N[C@@H](CN)C(=O)N[C@@H](CC(C)C)C(=O)N2C[C@H](O)C[C@H]2C(=O)N[C@@H](Cc2c[nH]c3ccccc23)C(=O)N[C@@H](CCN)C(=O)N[C@@H](Cc2c(C(=O)O)n(CC(=O)O)c3ccccc23)C(=O)N1C [Example 1018] ({CH2CO}-Y[NMeA]N[Sar][Dap]L[Hyp]W[Dab][X1][NMeNle][NMeNle]LC-NH2; thioether N-14) | 10 to 99 |
| CCCC[C@H]1C(=O)N(C)[C@@H](CCCC)C(=O)N[C@@H](CC(C)C)C(=O)N[C@H](C(N)=O)C(C)(C)SCC(=O)N[C@@H](Cc2ccc(O)cc2)C(=O)N2CCCC[C@H]2C(=O)N[C@@H](CC(=O)O)C(=O)N2CCC[C@H]2C(=O)N[C@@H](Cc2cnc[nH]2)C(=O)N[C@@H](CCC(=O)O)C(=O)N2C[C@H](O)C[C@H]2C(=O)N[C@@H](Cc2c[nH]c3ccccc23)C(=O)N[C@@H](CCN)C(=O)N[C@@H](Cc2cn(CC(=O)NS(C)(=O)=O)c3ccccc23)C(=O)N1C [Example 1010] ({CH2CO}-Y[Pip]DPHE[Hyp]W[Dab][Trp(1-CH2CONHSO2Me)][NMeNle][NMeNle]L[Pen]-NH2; thioether N-14) | 1 to 9.9 |
| CCCC[C@H]1C(=O)N(C)[C@@H](CCCC)C(=O)N[C@@H](CC(C)C)C(=O)N[C@H](C(N)=O)CSCC(=O)N[C@@H](Cc2ccc(O)cc2)C(=O)N(C)[C@@H](C)C(=O)N[C@@H](CC(N)=O)C(=O)N2CCC[C@H]2C(=O)N[C@@H](CN)C(=O)N[C@@H](CC(C)C)C(=O)N2C[C@H](O)C[C@H]2C(=O)N[C@@H](Cc2c[nH]c3ccccc23)C(=O)N[C@@H](CCN)C(=O)N[C@@H](Cc2nn(CC(=O)O)c3ccccc23)C(=O)N1C [Example 10501] ({CH2CO}-Y[NMeA]NP[Dap]L[Hyp]W[Dab][X5][NMeNle][NMeNle]LC-NH2; thioether N-14) | 1 to 9.9 |
| CCCC[C@H]1C(=O)N(C)[C@@H](CCCC)C(=O)N[C@@H](CC(C)C)C(=O)N[C@H](C(=O)NCC(N)=O)CSCC(=O)N[C@@H](Cc2ccc(O)cc2)C(=O)N(C)[C@@H](C)C(=O)N[C@@H](CC(N)=O)C(=O)N2CCC[C@H]2C(=O)N[C@@H](CN)C(=O)N[C@@H](CC(C)C)C(=O)N2C[C@H](O)C[C@H]2C(=O)N[C@@H](Cc2c[nH]c3ccccc23)C(=O)N[C@@H](CCN)C(=O)NC(Cn2cc(CC(=O)O)c3ncccc32)C(=O)N1C (stereo partly drawn) [Example 10003] ({CH2CO}-Y[NMeA]NP[Dap]L[Hyp]W[Dab][X2][NMeNle][NMeNle]LCG-NH2; thioether N-14) | 100 to 990 |
| CCCC[C@H]1C(=O)N(C)[C@@H](CCCC)C(=O)N[C@@H](CCCNC(=N)N)C(=O)N[C@H](C(=O)NCC(N)=O)CSCC(=O)N[C@@H](Cc2ccc(O)cc2)C(=O)N(C)[C@@H](C)C(=O)N[C@@H](CC(N)=O)C(=O)N2CCC[C@H]2C(=O)N[C@@H](Cc2cnc[nH]2)C(=O)N[C@@H](CC(C)C)C(=O)N2C[C@H](O)C[C@H]2C(=O)N[C@@H](Cc2c[nH]c3ccccc23)C(=O)N[C@@H](CO)C(=O)N[C@@H](Cc2ccc3cnccc3c2)C(=O)N1C [Example 0001] ({CH2CO}-Y[NMeA]NPHL[Hyp]WS[X6][NMeNle][NMeNle]RCG-NH2; thioether N-14) | 100 to 990 |
| CCCC[C@H]1C(=O)N(C)[C@@H](CCCC)C(=O)N[C@@H](CC(C)C)C(=O)N[C@H](C(N)=O)C(C)(C)SCC(=O)N[C@@H](Cc2ccc(OC)cc2)C(=O)N2CCCC[C@H]2C(=O)N[C@@H](CC(=O)O)C(=O)N2CCC[C@H]2C(=O)N[C@@H](CN)C(=O)N[C@@H](CCC(=O)O)C(=O)N2C[C@H](O)C[C@H]2C(=O)N[C@@H](Cc2c[nH]c3ccccc23)C(=O)N[C@@H](CCN)C(=O)N[C@@H](Cc2cn(CC(=O)NS(C)(=O)=O)c3ccccc23)C(=O)N1C [Example 1004] ({CH2CO}-Y(Me)[Pip]DP[Dap]E[Hyp]W[Dab][Trp(1-CH2CONHSO2Me)][NMeNle][NMeNle]L[Pen]-NH2; thioether N-14) | 1 to 9.9 |
| CCCC[C@H]1C(=O)N(C)[C@@H](CCCC)C(=O)N[C@@H](CC(C)C)C(=O)N[C@H](C(=O)NCC(N)=O)CSCC(=O)N[C@@H](Cc2ccc(O)cc2)C(=O)N(C)[C@@H](C)C(=O)N[C@@H](CC(N)=O)C(=O)N2CCC[C@H]2C(=O)N[C@@H](CN)C(=O)N[C@@H](CC(C)C)C(=O)N2C[C@H](O)C[C@H]2C(=O)N[C@@H](Cc2c[nH]c3ccccc23)C(=O)N[C@@H](CCN)C(=O)N[C@@H](Cc2nc(CC(=O)O)n3c2CCCC3)C(=O)N1C [Example 1009] ({CH2CO}-Y[NMeA]NP[Dap]L[Hyp]W[Dab][X11][NMeNle][NMeNle]LCG-NH2; thioether N-14) | 10 to 99 |
| CCCC[C@H]1C(=O)N(C)[C@@H](CCCC)C(=O)N[C@@H](CC(C)C)C(=O)N[C@H](C(=O)NCC(N)=O)CSCC(=O)N[C@@H](Cc2ccc(O)cc2)C(=O)N(C)[C@@H](C)C(=O)N[C@@H](CC(N)=O)C(=O)N2CCC[C@H]2C(=O)N[C@@H](CN)C(=O)N[C@@H](CC(C)C)C(=O)N2C[C@H](O)C[C@H]2C(=O)N[C@@H](Cc2c[nH]c3ccccc23)C(=O)N[C@@H](CCN)C(=O)N[C@@H](Cc2cn(CC(=O)O)c3ccc(OC)cc23)C(=O)N1C [Example 10506] ({CH2CO}-Y[NMeA]NP[Dap]L[Hyp]W[Dab][X10][NMeNle][NMeNle]LCG-NH2; thioether N-14) | 1 to 9.9 |

Reference: patent US10358463B2, “Immunomodulators” (BRISTOL-MYERS SQUIBB COMPANY, priority 2016, dated 2019)
